Series [1] has as its target Recombinant human CD38 (Homo sapiens (Human), UniProt P28907). Description: Human CD38 hydrolase assay (fluorescence, ε-NAD substrate). It is filed as biochemical. As to conditions: recombinant human CD38 0.8 nM, 4 μM ε-NAD, 30 min preincubation at 25° C., pH 7.4. The protocol: The ability of test compounds to inhibit human CD38 hydrolase activity was measured in a fluorescence-based assay using non-physiological NAD^+ substrate analogue 1,N^6-etheno NAD^+ (ε-NAD). Recombinant human CD38 (0.8 nM) was preincubated with test compounds in 384-well black microplates for 30 min at 25° C. in PBS (—Ca^2+/Mg^2+) containing 0.005% BSA (pH 7.4). CD38 hydrolase activity was initiated by addition of 4 μM ε-NAD, which yields the fluorescent product 1,N^6-etheno ADP-ribose. Formation of fluorescent product was followed using ClarioStar Plus (BMG) microplate reader by reading fluorescence (excitation λ=300 nm; emission λ=410 nm) at two time points, one immediately after substrate addition (t=0) and one at 10 min (t=10).
Data was analysed by subtracting the values detected at t=0 from t=10 to correct for variation in baseline fluorescence. Fluorescence values were converted to percent inhibition using the average of high signal (CD38 and ε-NAD) and low signal (CD38 and ε-NAD in the presence of a tool CD38 inhibitor) control wells. IC50 values were determined from a 10-point, half log concentration response curve with a four-parameter logistic equation.

The nature of series [2]: Tissue binding assay, plasma (equilibrium dialysis). In kind it is in vitro ADME. As to conditions: dialysis 4 hours at 37° C. The protocol: [The source words this procedure for another target and reports this target under the same test.] Buffer preparation. A basic solution was prepared by dissolving 14.2 g/L Na2HPO4 and 8.77 g/L NaCl in deionized H2O. An acidic solution was prepared by dissolving 15.6 g/L NaH2PO4·2H2O and 8.77 g/L NaCl in deionized H2O. Using the acidic solution, the basic solution was then titrated to pH 7.4±0.1 and stored at 4° C. for up to 1 month. The stop solution was 100% CH3CN containing 200 ng/mL tolbutamide, 200 ng/mL labetalol and 50 ng/mL metformin.
Test method. Dialysis membrane strips were soaked in ultra-pure water at room temperature for ˜1 hour. Each membrane strip containing 2 membranes was separated and soaked in 20:80 EtOH/H2O (v/v) for ˜20 min, after which they were ready for use or were stored in the solution at 2-8° C. for up to 1 month. Prior to the experiment, the membrane was rinsed and soaked for 20 min in ultra-pure water. On the day of experiment, brain homogenate was thawed in a water bath at room temperature and incubated at 37° C. for 10 min before use. Test and control compounds were dissolved in DMSO to achieve 10 mM stock solutions. DMSO working solutions were prepared at 400 μM by diluting 10 μL of stock solution. To prepare the time zero (t=0) samples to be used for recovery determination, 50 μL aliquots of loading matrix were transferred in triplicate to the sample collection plate. The samples were immediately matched with opposite blank buffer to obtain a final volume of 100 μL of 1:1 matrix/dialysis buffer (v/v) in each well. 500 μL of stop solution were added to these t=0 samples. They were then stored at 2-8° C. pending further processes along with other post-dialysis samples. To load the dialysis device, an aliquot of 150 μL of the loading matrix was transferred to the donor side of each dialysis well in triplicate, and 150 μL of the dialysis buffer was loaded to the receiver side of the well. The dialysis plate was placed in a humidified incubator at 37° C. with 5% CO2 on a shaking platform that rotated slowly (about 100 rpm) for 4 hours. At the end of the dialysis, aliquots of 50 μL of samples were taken from both the buffer side and the matrix side of the dialysis device. These samples were transferred into new 96-well plates. Each sample was mixed with an equal volume of opposite blank matrix (buffer or matrix) to reach a final volume of 100 μL of 1:1 matrix/dialysis buffer (v/v) in each well. All samples were further processed by adding 500 μL of stop solution containing internal standards. The mixture was vortexed and centrifuged at 4000 rpm for about 20 min. An aliquot of 100 μL of supernatant of all the samples was then removed for LC-MS/MS analysis. The single blank samples were prepared by transferring 50 μL of blank matrix to a 96-well plate and adding 50 μL of blank PBS buffer to each well. Then the matrix-matched samples were further processed by adding 500 μL of stop solution containing internal standards, following the same sample processing method as the dialysis samples.
Data analysis. The % undiluted unbound, % undiluted bound and % recovery were calculated using the following equations:
% Undiluted Unbound=100*1/D/((1/(F/T)−1)+1/D)
% Undiluted Bound=100−% Undiluted Unbound
where F is the analyte concentration or peak area ratio of analyte/internal standard on the buffer (receiver) side of the membrane; T is the analyte concentration or peak area ratio of analyte/internal standard on the matrix (donor) side of the membrane; To is the analyte concentration or the peak area ratio of analyte/internal standard in the loading matrix sample at time zero; and D is the dilution factor determined as 4 in this assay.

Sequence of Recombinant human CD38 (P28907 whole entry): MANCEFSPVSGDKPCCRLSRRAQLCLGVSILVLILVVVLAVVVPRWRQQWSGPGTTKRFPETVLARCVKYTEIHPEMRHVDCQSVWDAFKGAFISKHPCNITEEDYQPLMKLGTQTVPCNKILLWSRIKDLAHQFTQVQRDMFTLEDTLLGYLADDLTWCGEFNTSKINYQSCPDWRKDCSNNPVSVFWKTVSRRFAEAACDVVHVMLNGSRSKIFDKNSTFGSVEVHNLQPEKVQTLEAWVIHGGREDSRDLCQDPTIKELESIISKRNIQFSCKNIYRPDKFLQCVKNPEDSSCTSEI

For the compound `Cc1cc(C(=O)N[C@H]2CC[C@H](N3CCC(F)(F)C3)CC2)nc(-n2ccnc2)n1` [Example 10, N-((1r,4r)-4-(3,3-difluoropyrrolidin-1-yl)cyclohexyl)-2-(1H-imidazol-1-yl)-6-methyl-pyrimidine-4-carboxamide], the IC50 in series [1] was at most 0.04 µM. Besides, in series [2], the “Mouse plasma (% unbound)” value came to 10.6 % unbound.

Take `Cc1cc(C(=O)N[C@H]2CC[C@H](NC(C)(C)C(F)(F)F)CC2)nc(-n2ccnc2)n1` [Example 21, 2-(1H-imidazol-1-yl)-6-methyl-N-((1r,4r)-4-((1,1,1-trifluoro-2-methylpropan-2-yl)amino)cyclohexyl)pyrimidine-4-carboxamide]: the IC50 in series [1] is at most 0.1 µM. For the same compound, the “Mouse plasma (% unbound)” value in series [2] came out at 4.1 % unbound.

In the case of `O=C(N[C@H]1CC[C@H](NCC(F)F)CC1)c1cc(C2CC2)nc(-n2ccnc2)n1` [Example 3, 6-cyclopropyl-N-((1r,4r)-4-((2,2-difluoroethyl)amino)cyclohexyl)-2-(1H-imidazol-1-yl)pyrimidine-4-carboxamide], the IC50 in series [1] was at most 0.04 µM. In series [2], the “Mouse plasma (% unbound)” value is recorded as 7.4 % unbound.

For the compound `Cc1cc(C(=O)N[C@H]2CC[C@H](NCC(F)(F)F)CC2)nc(-n2ccnc2)n1` [Example 1, 2-(1H-imidazol-1-yl)-6-methyl-N-((1r,4r)-4-((2,2,2-trifluoroethyl)amino)cyclohexyl)pyrimidine-4-carboxamide], the IC50 in series [1] is at most 0.04 µM. The “Mouse plasma (% unbound)” value in series [2] is on record as 13.0 % unbound.

In the case of `Cc1cc(C(=O)N[C@H]2CC[C@H](NCC(F)F)CC2)nc(-n2ccnc2)n1` [Example 2, N-((1r,4r)-4-((2,2-difluoroethyl)amino)cyclohexyl)-2-(1H-imidazol-1-yl)-6-methyl-pyrimidine-4-carboxamide], the IC50 in series [1] was at most 0.04 µM. The “Mouse plasma (% unbound)” value in series [2] is given as 22.7 % unbound.
